These results are taken from patent US20110045027A1, “Adjuvant” (Glaxo Group Limited, priority 2005, published 2011).

One data set concerns mouse skin. Put plainly: In vivo delivery by intradermal injection and luciferase assay (pGL3CMV plasmid). On the set-up: species or system Balb/c×C3H F1 female mice. The conditions noted are these: FIG. 3, OPTIMEM, 0.5:1 (w/w gemini:DNA). The text has this: Plasmid pGL3CMV is a luciferase expression vector based upon pGL3 Basic, (Promega Corporation., Madison, Wis., USA), where the CMV immediate early promoter drives luciferase expression. The plasmid pGL3CMV was used in all gene expression studies in mouse skin biopsies and has been described in WO03/061636.
Gemini surfactants were mixed with plasmid DNA by drop by drop addition of the diluted gemini surfactant formulation (in OPTIMEM) to the diluted plasmid DNA formulation (in OPTIMEM) at room temperature whilst the mixture was being mixed using a Vortex mixer (Mini Vortexer, VWR). […]
Plasmid DNA was delivered into the skin of Balb/c×C3H F1 female mice. […] Groups of 8-10 animals (or 4 to 5 animals with two injection sites) were analysed for skin gene expression. […]
Skin samples were thawed to room temperature and disrupted in 500 ul of Passive Lysis Buffer™ (Promega Corporation, Madison, Wis., USA) using an IKA Labortechnic Ultra turrax T8 polytron. Luciferase enzyme activity was determined using a luciferase assay kit (Promega). […] Luciferase activity (RLU) was measured as counts per minute on the Victor 2 1420 multilabel HTS counter on the luminescence program (Wallac, Perkin Elmer). Total protein concentration was calculated by a Coomassie Plus protein assay reagent kit (Perbio) using the manufacturer's protocol. […] The absorbance was measured at 595 nm on a Molecular Devices Spectra Max 340. […]

The nature of data set [1]: Particle size of gemini surfactant solutions by quasi-elastic light scattering (QELS). The conditions noted are these: fresh solutions stored at 4° C., particle size at bi-weekly intervals, 10-week study, FIG. 28. It is filed as physicochemical. Here is the method:
All gemini surfactants were prepared from lyophilised stocks by vortex re-suspension in pure water at a stock concentration of 1 mg/ml stored at 4° C. Gemini surfactants were diluted either in pure water or were directly diluted in Optimem®1 (GIBCO Invitrogen) for immediate use. Where gemini surfactants were formulated together with other helper lipids such as DOPE, these were co-lyophilised at a 1:1, (w/w) ratio and similarly vortex re-suspended in pure water at a stock concentration of 1 mg/ml stored at 4° C.
(§1) The size of the particles formed by gemini surfactants and their complexes with plasmid DNA was measured by quasi-elastic light scattering (QELS) (Finsy, R., Advances in Colloid and Interface Science (1994) 52 (19 September):79-143; Gittings, M. R., and Saville, D. A., Colloids and Surfaces A: Physicochemical and Engineering Aspects (1998) 141: 111-117). Samples (50 μl) were analysed using a Brookhaven Instruments Corporation particle size analyser (BIC 90 Plus) following the manufacturer's instructions: 10 measurements, each consisting of 10 runs were taken per sample. […] The average particle size was automatically derived from the raw data by the instrument and expressed as the mean hydrodynamic diameter in nanometers (nm). […]
The colloidal properties of gemini surfactant solutions were monitored over time in order to analyse their apparent instability in greater detail. […]

For data set [2], the system named is Balb/c mice. Put plainly: Humoral responses by ELISA, antigen-specific whole IgG (HIV RNG fusion protein). It is filed as in vivo. The note with it: Example 48; intradermal delivery, FIG. 11, day 14 post-boost. Here is the method: Acclimatised 6-8 week old Female Balb/c mice were maintained under general anaesthesia using an oxygen-controlled inhaled Isoflourane mask for application by intradermal injection to the pre-shaved lower back above the base of the tail. Where necessary mice were given Rimadyl (Carprofen) as an analgesic in a sub-cutaneous dose of 5 mg/Kg, diluted 1:10 and delivered at 20 μl/mouse. Injections of up to 50 μl of freshly formulated DNA with or without gemini surfactant were given via BD 0.5 ml insulin syringes with 29 g needles.
The humoral response was assessed by measuring antigen-specific whole IgG antibody levels (eg. to HIV RNG fusion protein) in the serum samples collected after primary and boost immunisation. […] The amount of bound antibody was determined after 4 further washes (as above) followed by addition of TMB substrate solution (T-8540-Sigma). After 30 minutes at 20° C. protected from light, the reaction is stopped with 1M sulphuric acid and absorbance read at 450 nm. […]
Humoral responses to RNG fusion peptide (WO03/025003), as serum whole IgG, were monitored at day 14 post-boost (FIG. 11). […]
Humoral responses were also analysed in this example. The humoral responses were measured as whole serum IgG and data were collected both after a homologous prime and boost and again after a heterologous boost with NHP Adenovirus p6GRN, see FIG. 42. […]
Background: ELISA stands for enzyme-linked immunosorbent assay.

Data set [3] has as its system Balb/c mice. Description: Cellular immune responses by IFN-γ / IL2 ELISPOT after immunisation with plasmid p7313iTrng. It is filed as in vivo. The note with it: Example 48; intradermal delivery, FIGS. 5 to 10. The text has this:
Plasmid p7313iTrng, is a vector where the CMV immediate early promoter drives the expression of a fusion antigen, RNG, consisting of parts of the HIV reverse transcriptase, nef and gag genes. The plasmid p7313iTrng was used in all immune response studies in mouse (WO03/025003).
Acclimatised 6-8 week old Female Balb/c mice were maintained under general anaesthesia using an oxygen-controlled inhaled Isoflourane mask for application by intradermal injection to the pre-shaved lower back above the base of the tail. Where necessary mice were given Rimadyl (Carprofen) as an analgesic in a sub-cutaneous dose of 5 mg/Kg, diluted 1:10 and delivered at 20 μl/mouse. […]
Mice were killed by cervical dislocation and spleens were collected into ice-cold PBS. […] After two washes in PBS to remove particulate matter the concentration of cells in the single cell suspension was assessed by counting in a Guava Flow Cytometer. […] After overnight culture, IFN-γ or IL2 producing cells were visualised by application of anti-murine IFN-γ-biotin or IL2-biotin labelled antibody (Pharmingen) followed by streptavidin-conjugated alkaline phosphatase and quantitated using image analysis.
Representatives of 3 classes of gemini surfactants were assessed for their ability to induce both cellular and humoral immune responses upon delivery to mouse skin through the intradermal route. […]

The next data set relates to plasmid DNA (pdpSC18). Put plainly: Particle size of gemini surfactant-plasmid DNA complexes (lipoplexes) by QELS. The conditions noted are these: buffers covering pH 6.5 to pH 4.5, FIG. 33. It is filed as physicochemical. As for the experimental part: Gemini surfactants were mixed with plasmid DNA by drop by drop addition of the diluted gemini surfactant formulation (in OPTIMEM) to the diluted plasmid DNA formulation (in OPTIMEM) at room temperature whilst the mixture was being mixed using a Vortex mixer (Mini Vortexer, VWR). The ratio of gemini surfactant to plasmid DNA was varied from 0.2:1 (w/w) to 4:1 (w/w) so that for a final volume of 50 ul per delivery, the formulation contained 10 ug of plasmid DNA with gemini surfactant at the correct ratio. Gemini: DNA mixtures or complexes were left at room temperature for 15 minutes post mixing to form and were then delivered to animals within 15 to 30 minutes. […]
as §1

Structures are written as SMILES.

Consider `CCCCCCCC/C=C\CCCCCCCC(=O)NCCCN(CCCCN(CCCNC(=O)CCCCCCCCCCCCCCCCC)C(=O)[C@H](N)CCCCN)C(=O)[C@H](N)CCCCN` [GSC103 D-Lys, Oleic Acid, Stearic Acid], for which the “gene delivery and/or expression in mouse skin versus DNA with DMRIE-C or electroporation” value with mouse skin is “exception”.
As for `CCCCCCCC/C=C\CCCCCCCC(=O)NCCCN(CCCCN(CCCNC(=O)CCCCCCC/C=C\CCCCCCCC)C(=O)[C@@H](N)CCCCN)C(=O)[C@@H](N)CCCCN` [GSC103-L-Lys], the “storage time for which the solution remained stable before particle formation” value in data set [1] turned out to be 2 weeks. Besides, the “level of humoral immune responses versus PMED at boost” value with Balb/c mice [2] is “comparable to those induced by PMED at boost”. The “level of cellular immune responses versus PMED at boost” value in the data set with Balb/c mice [3] is reported as “comparable to those induced by PMED at boost”. Also, the “pH sensitivity of lipoplexes (particle size versus pH)” value in the data set with plasmid DNA (pdpSC18) is given as “fluctuated with falling pH”.
